The source of these data is publication PMC2362650, “Phase I and pharmacokinetic study of the topoisomerase II catalytic inhibitor fostriecin” (British Journal of Cancer, 1999).

One data set deals with solid tumour. The data set is described as follows: Tumour response in phase I patients. The note with it: 2-20 mg m-2 day-1, days 1-5 every 4 weeks; 10 patients with measurable disease. The class given is in vivo, human. The source says: Fostriecin (CI-920) is a topoisomerase (topo) II catalytic activity inhibitor (Boritzki et al, 1988) (Figure 1). This novel class of topo II-targeting drugs is considered of potential value for treatment of patients with tumours resistant to classic topo II poisons, including anthracyclines and podophyllotoxins (Cummings and Smyth, 1993). The nuclear enzyme topo II is essential for the regulation of DNA conformation (reviewed in Osheroff et al, 1991). Central in its action is the formation of a complex with DNA. Stabilization of this complex by topo II poisons induces DNA damage and cell death (Froelich-Ammon and Osheroff, 1995). Decreased complex formation due to decreased topo II levels is considered to be an important mechanism of tumour-resistance to topo II poisons (Beck and Danks, 1991). The topo II catalytic inhibitor fostriecin is expected to have increased activity against tumour cells with low topo II levels and this was confirmed in in vitro studies (De Jong et al, 1991). […] Drug pharmacokinetics was analysed with high performance liquid chromatography with UV-detection. […] A metabolite, most probably dephosphorylated fostriecin, was detected in plasma and urine. […]

On the set-up of data set [1]: method as in Clinical Brochure Fostriecin, 1991. The note with it: mouse; 5-day schedule; ref Clinical Brochure Fostriecin, 1991; cited from earlier work.
A further data set relates to murine leukaemia L1210. Set-up: method as in Leopold et al, 1984. The note with it: ref Leopold et al, 1984; cited from earlier work.
The next data set has as its system murine leukaemia P388. Details: method as in Leopold et al, 1984. The note with it: ref Leopold et al, 1984; cited from earlier work.

On to `C[C@@](O)(/C=C/[C@H]1CC=CC(=O)O1)[C@@H](C[C@@H](O)\C=C/C=C\C=C\CO)OP(=O)(O)O` [fostriecin], for which the tumour responses entry in the data set with solid tumour is “No tumour responses”. Moreover, the LD10 in data set [1] is 120 mg m-2 day-1. The “activity against L1210” value in the data set with murine leukaemia L1210 was “active”. Further, the “activity against P388” value with murine leukaemia P388 is listed as “active”.
